These results are taken from patent publication US10793580B2, “Substituted pyrazoloazepin-8-ones and their use as phosphodiesterase inhibitors” (LEO Pharma A/S, priority 2016, dated 2020).

By IC50 is commonly meant the point on the concentration scale where inhibition reaches its midpoint.

Chain of human PDE4D catalytic domain (Q08499 380-740): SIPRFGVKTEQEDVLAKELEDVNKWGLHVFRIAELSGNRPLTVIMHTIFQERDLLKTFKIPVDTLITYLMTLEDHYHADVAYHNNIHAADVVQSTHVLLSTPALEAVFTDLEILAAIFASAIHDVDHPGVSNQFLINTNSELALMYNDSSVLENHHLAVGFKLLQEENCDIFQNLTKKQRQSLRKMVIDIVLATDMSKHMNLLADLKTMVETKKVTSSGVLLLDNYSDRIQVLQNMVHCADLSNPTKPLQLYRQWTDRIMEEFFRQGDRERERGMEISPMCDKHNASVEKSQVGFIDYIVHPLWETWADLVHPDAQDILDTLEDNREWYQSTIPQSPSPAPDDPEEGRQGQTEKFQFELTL

One experiment concerns the target human PDE4D catalytic domain (Homo sapiens (Human), UniProt Q08499). The experiment in a line: PDE4 Assay (TR-FRET, FAM-cAMP cleavage). It is filed as biochemical. Particulars: Table 16, Examples 277-296; read-out: PDE4 IC50 range. In short, it runs like this:
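Readout is Tb-to-FAM time-resolved FRET after nanoparticle capture of AMP, the product of cleaving a cAMP/FAM-cAMP mixture by PDE4D catalytic domain (S380-L740) in the presence of titrated compound. Values are IC50 ranges in nM: concentration halving substrate cleavage relative to controls.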
On to `CCn1nc(C[C@@H](C)COC(=O)C2CCN(C(C)=O)CC2)c2c1C(=O)NCC1(CCOCC1)C2` [Example 294, [(2R)-3-(1-ethyl-8-oxo-spiro[6,7-dihydro-4H-pyrazolo[3,4-c]azepine-5,4′-tetrahydropyran]-3-yl)-2-methyl-propyl] 1-acetylpiperidine-4-carboxylate], for which the IC50 is less than 100 nM.
On the same count and under the same terms, for `CCn1nc(C[C@@H](C)COC(=O)C2CCN(C(=O)OC)CC2)c2c1C(=O)NCC1(CCOCC1)C2` [Example 295, [(2R)-3-(1-ethyl-8-oxo-spiro[6,7-dihydro-4H-pyrazolo-[3,4-c]azepine-5,4′-tetrahydro-pyran]-3-yl)-2-methyl-propyl] 1-methoxycarbonylpiperidine-4-carboxylate] the value was less than 100 nM.

The experiment is the same for the next values; noted with them: Table 17, Examples 297-316; read-out: PDE4 IC50 range.
Take `CCn1nc(CC(C)(C)COC(=O)c2cocn2)c2c1C(=O)NCC1(CCOCC1)C2` [Example 297, [3-(1-ethyl-8-oxo-spiro[6,7-dihydro-4H-pyrazolo[3,4-c]azepine-5,4′-tetrahydro-pyran]-3-yl)-2,2-dimethyl-propyl] oxazole-4-carboxylate]: the IC50 is less than 100 nM.

The same experiment, now with this note: human PDE4D catalytic domain (UniProt Q08499 [S380-L740]); 50% inhibition of substrate cleavage; read-out: PDE4 IC50 range.
In the case of `CCn1nc(CC(C)(C)COC(=O)c2cccc(C(=O)N3CCCCC3)c2)c2c1C(=O)NCC1(CCOCC1)C2` [Example 231, [3-(1-ethyl-8-oxo-spiro[6,7-dihydro-4H-pyrazolo[3,4-c]azepine-5,4′-tetrahydro-pyran]-3-yl)-2,2-dimethyl-propyl] 3-(piperidine-1-carbonyl)benzoate], the IC50 is less than 100 nM.
The same measure, in the same setting: the figure for `CCn1nc(CCCOC(=O)c2cscn2)c2c1C(=O)NCC1(CCOCC1)C2` [Example 244, 3-(1-ethyl-8-oxo-spiro[6,7-dihydro-4H-pyrazolo[3,4-c]azepine-5,4′-tetrahydropyran]-3-yl)propyl thiazole-4-carboxylate] is less than 100 nM.
On the same count and under the same terms, for `CCn1nc(CC(C)(C)COC(=O)c2ccc(C(=O)N(C)C)cc2)c2c1C(=O)NCC1(CCOCC1)C2` [Example 220, [3-(1-ethyl-8-oxo-spiro[6,7-dihydro-4H-pyrazolo[3,4-c]azepine-5,4′-tetra-hydropyran]-3-yl)-2,2-dimethyl-propyl] 4-(di-methylcarbamoyl)benzoate] the value was less than 100 nM; for `CCn1nc(CCCOC(=O)c2cnsc2)c2c1C(=O)NCC1(CCOCC1)C2` [Example 243, 3-(1-ethyl-8-oxo-spiro[6,7-dihydro-4H-pyrazolo[3,4-c]azepine-5,4′-tetrahydropyran]-3-yl)propyl isothiazole-4-carboxylate], less than 100 nM.
Still for that read-out and setting: the figure for `CCn1nc(CCCCOC(=O)c2ccc(S(=O)(=O)N(C)C)cc2)c2c1C(=O)NCC1(CCOCC1)C2` [Example 132, 4-(1-ethyl-8-oxo-spiro[6,7-dihydro-4H-pyrazolo[3,4-c]azepine-5,4′-tetrahydropyran]-3-yl)butyl 4-(dimethyl-sulfamoyl)benzoate] is less than 100 nM; for `CCn1nc(CC(C)(C)COC(=O)c2ccc(S(=O)(=O)C3CCCC3)cc2)c2c1C(=O)NCC1(CCOCC1)C2` [Example 209, [3-(1-ethyl-8-oxo-spiro[6,7-dihydro-4H-pyrazolo[3,4-c]azepine-5,4′-tetrahydropyran]-3-yl)-2,2-dimethyl-propyl] 4-cyclopentylsulfonylbenzoate] it is less than 100 nM.
Regarding `CCn1nc(CCCOC(=O)c2ccc(S(=O)(=O)N(C)C)cc2)c2c1C(=O)NCC1(CCOCC1)C2` [Example 2, 3-(1-Ethyl-8-oxo-spiro[6,7-dihydro-4H-pyrazolo[3,4-c]azepine-5,4′-tetrahydropyran]-3-yl)propyl 4-(dimethylsulfamoyl)benzoate], the IC50 is less than 100 nM.
Regarding `CCn1nc(C[C@@H](C)COC(=O)CCOC)c2c1C(=O)NCC1(CCOCC1)C2` [Example 137, [(2R)-3-(1-ethyl-8-oxo-spiro[6,7-dihydro-4H-pyrazolo[3,4-c]azepine-5,4′-tetrahydropyran]-3-yl)-2-methyl-propyl] 3-methoxypropanoate], the IC50 is less than 100 nM.
